Laboratory results taken from patent US20040048816A1, “Restenosis treatment” (priority 2000, published 2004).

Columns and labels:
[1] = system: primary human coronary smooth muscle cells; experiment: Flow cytometry of apoptosis in cultured SMCs (FITC-Annexin V / PI double staining); assay type: cell-based
Method: The effect of IFNγ on the survival of cultured proliferating SMCs was analyzed by flow cytometry. For this reason primary human coronary smooth muscle cells were obtained from CellSystems (Germany) and were grown in Smooth muscle cell growth medium (CellSystems) containing 5% fetal calf serum (CellSystems) at 37° C. in a humidified atmosphere of 5% CO2. SMCs were used between passages 2 and 4. Treatment with 1000 U/ml rh-IFNγ (R&D Systems) was performed for 16 h. For induction of cell death, SMCs were incubated at 37° C. for 1 h in HBSS containing 100 μmol/l H2O2 and 100 μmol/l ferrous sulfate. Afterwards the cells were further cultured in freshly prepared culture medium for 8 h. Cells were labelled with FITC-labelled Annexin V (Roche Diagnostics) and propidium iodide (PI) according to the manufacturer's instructions. 10^4 events were analyzed with a flow cytometer (Becton Dickinson).

[2] = system: human coronary artery smooth muscle cells (CASMC); experiment: Transcriptome analysis (cDNA arrays) of treated cultured CASMC; assay type: cell-based; conditions: 1000 U/ml IFN-γ, 16 hours, 37° C.
Method: To adapt the transcriptional profile of cultured human coronary artery smooth muscle cells (CASMC) (Clonetics) to that of neointima, CASMC were stimulated with IFN-g and performed transcriptome analysis as described above. CASMC were cultured as described in the manufacter's manual in growth medium until 50% confluency was reached. Afterwards cells were stimulated with 1000 U/ml IFN-γ (R&D, Germany) for 16 hours at 37° C. Cells were washed twice in PBS and RNA preparation, cDNA synthesis and amplification and transcriptome analysis was performed as described above.
As proliferating CASMC overexpress FKBP12 like neointima, this cell line can be employed as a potential surrogate cell line for neointima in respect to therapeutic effects of rapamycin. Therefore, in a first step, CASMC were incubated with lo0ng/ml rapamycin (Sigma) for 24 hours and transcriptome analysis was performed in order to monitore the therapeutic effect.
Afterwards, microscopic specimen of in-stent restenotic tissue are incubated with rapamycin and transcriptome analysis was performed as described herein above. Transcriptome/gene expression pattern of rapamycin treated CASMC was compared to the transcriptome of rapamycin-treated neointima to measured the effectiveness of CASMC as a surrogate cell line for neointima.

[3] = target: T1, glycoprotein IIb/IIIa (Homo sapiens, UniProt P05106+P08514); conditions: at 30 days after surgery; versus 10.6%; cited from earlier work
T1 construct: host or cells: patients in clinical trials (endogenous protein)

Row | Substance | spontaneous apoptosis (apoptotic cells) ([1]; SMCs after 1000 U/ml rh-IFNγ for 16 h, untreated 10%) | number of apoptotic cells after induction of apoptosis with H2O2 ([1]; SMCs, 1000 U/ml rh-IFNγ 16 h, then 100 μmol/l H2O2, without IFNγ 54%) | gene expression pattern of CASMCs after incubation [2] | death rate, myocardial infarction and/or target vessel vascularization [3]
1 | IFNγ: recombinant human interferon γ (R&D Systems), a cytokine mainly produced by T-lymphocytes | 6% | 27% | neointima-specific IFN-γ gene expression pattern could be generated | 
2 | abciximab: monoclonal antibody recognizing glycoprotein IIb/IIIa |  |  |  | 5.3%
